In patent publication US5686424A, “2-oxoethyl derivatives as immunosuppressants” (Miles Inc., priority 1995, dated 1997):
Like-named read-outs stand apart in the source and are kept apart here.

Assays:
[1] = system: human T-cells; experiment: Suppression of Human T-Cell Proliferation Assay (PHA-stimulated, [3H]-thymidine incorporation); type: cell-based; settings: read-out: IC50
Source text: 2) Human T Lymphocyte Inhibition
Inhibition of mitogen-induced T-cell proliferation can be used to profile immunosuppressive activity of test compounds. In the description of the assay which follows, mitogen-induced T-cell activation was used to test the inhibitory potencies of select compounds of the present invention.
In an assay similar to that described by Bradley in Mishell et al. (Eds.), 1980, Selected Methods in Cellular Immunology, pp 156-161, W. H. Freeman & Co., San Fransisco, Calif., T-cells were stimulated by incubation with phytohemagglutinin (PHA) which binds to cell surface molecules, including the T-cell receptor. This stimulation results in proliferation which can be measured by incorporation of [^3 H]-thymidine into cellular DNA.
The immunosuppressive properties of the compounds of the present invention can be determined by adding various concentrations of the compounds to these cultures and measuring the effect on T-cell proliferation.
Suppression of Human T-Cell Proliferation Assay
Fresh LeukoPaks were obtained from the New York Blood Center, New York, N.Y. The cells, including erythrocytes and leukocytes, were diluted with Hank's Balanced Salt Solution (HBSS) (GIBCO, Grand Island, N.Y.) and layered over Lymphoprep (Nycomed Pharma AS, Oslo, Norway) in sterile 50 ml conical centrifuge tubes. Lymphocytes were isolated at the Hank's/Nycomed interface after centrifugation at 2000×g, 4° C. for 15 min. The lymphocytes were washed with Minimal Essential Medium (GIBCO) containing 2% fetal bovine serum (FBS) (Sigma Chemical Co., St. Louis, Mo.), 1% HEPES buffer (GIBCO) and 1% Penicillin-Stretomycin solution (GIBCO).
T-cells were further purified essentially by sheep erythrocyte (SRBC) rosetting as described by Morimoto et al., 1983, J. Immunol. 130:157. The isolated lymphocytes were adjusted to 2×10^7 cells/ml and 5 ml aliquots of the cell suspension were incubated for 10 minutes at room temperature with 5 ml of a 5% SRBC (Cappel, Organon Technika Corp., West Chester, Pa.) suspension. The cells were gently pelleted by centrifugation at 300 rpm for 10 minutes, followed by a 1 hour incubation at room temperature to allow rosette formation. The cells were gently resuspended,layered over Lymphoprep and centrifuged for 30 minutes at 500×g. The pellet, containing rosetted T-cells and SRBC was treated with ice cold buffered ammonium chloride (GIBCO) to lyse the erythrocytes. T-cells were washed twice with HBSS.
Purified T-cells were resuspended at 2×10^6 cells/ml in complete culture medium composed of RPMI-1640 (Whittaker Bioproducts, Walkerville, Md.) with 10% FBS (Sigma), 2 mM L-glutamine (GIBCO), 1% Penicillin-Streptomycin (GIBCO) and 15 mM HEPES (GIBCO). In 96-well plates (Becton Dickinson, Lincoln Park, N.J.), 0.1 ml aliquots of T-cell suspension were mixed with 0.05 ml of 40 μg/ml PHA-M (Sigma). The compounds of this invention were dissolved in dimethylsulfoxide at 10 mM and various dilutions in complete medium were added in duplicate wells (0.05 ml/well). The plates were incubated at 37° C. in a humidified atmosphere of 5% carbon dioxide and 95% air for 72 hours.
Proliferation was assessed by measurement of [^3 H]-thymidine incorporation. During the last 6 hours of incubation, the cells were pulse labelled with 1 μCi/well of [^3 H]-thymidine (New England Nuclear, Boston, Mass.). The cells were harvested onto glass fiber paper using a plate harvester and the radioactivity incorporated into cellular DNA corresponding to individual wells was measured by standard liquid scintillation counting methods.

[2] = target: FKBP (Homo sapiens, UniProt P62942); experiment: PPIase Inhibition Assay; type: biochemical
Description: 1) Inhibition of PPIase Activity
This assay follows in principle the procedure described in Kofron et al., 1991, Biochemistry 30:6127.
The three main reagents used are PPIase, a substrate for PPIase, and a selected inhibitor compound of the present invention. The basic principle behind this assay is the conversion of the cis isomer of the substrate to the trans form, which conversion is catalyzed by PPIase. Essentially, inhibition of this PPIase activity is measured for the selected compounds. A peptide chymotrypsin substrate containing a proline in the P2 position is only cleaved by chymotrypsin when the Phe-Pro bond is in the trans isomeric configuration. In the presence of excess chymotrypsin, all of the trans peptide isomers are cleaved within approximately five seconds, leaving only cis forms.
The cis peptide will spontaneously convert to the trans isomer at a slow rate. The cis to trans conversion is catalyzed by isomerases at a much faster rate than this spontaneous conversion. Proteins with PPIase activity are examples of such isomerases. After isomerization, the peptide is cleaved by chymotrypsin releasing p-nitroaniline which can be monitored at 390 nm. The rate of release is then calculated using a first order rate plus offset equation utilizing the ENZFITTER program (Leatherbarrow, BIOSOFT, Cambridge, United Kingdom).
In a plastic cuvette are added 950 ul of ice cold assay buffer (25 mM HEPES, pH 7.8, 100 mM NaCl), 10 uL of FKBP (2.5 uM in 10 mM Tris-Cl pH 7.5, 100 mM NaCl, 1 mM dithiothreitol), 25 ul of chymotrypsin (50 mg/ml in 1 mM HCl) and 10 ul of the test compound at various concentrations in dimethyl sulphoxide. The reaction is initiated by addition of 5 ul of substrate (Succinyl-Ala-Phe-Pro-Phe-para-nitroanilide, 5 mg/ml in 235 mM LiCl in trifluoroethanol).
The absorbance at 390 nm versus time is monitored for 90 sec using a Beckman DU70 spectrophotometer. The absorbance versus time data files are transferred to an IBM XT computer and the rate constants determined using the commercial enzfitter program. For each set of data, the uncatalyzed rate of conversion is measured and the uninhibited enzymatic rate determined. The data are expressed as % Activity remaining and are calculated as follows:
% Activity Remaining=(kobs -kuncat)/(kuninh
where kobs is the rate in the presence of a selected test compound, kuncat is the rate in the absence of enzyme, and kuninh is the rate in the presence of enzyme
Data was plotted as the velocity in the absence of the inhibitor (V-) divided by the velocity in the presence of inhibitor (V+) versus the inhibitor concentration. The IC50 can be determined following linear regression as the inhibitor concentration where

[3] = concentration inhibiting [3H]-thymidine incorporation of PHA-stimulated T-cells by 50%, 72 hours, TABLE 2
[4] = concentration of inhibitor required for 50% inhibition of enzyme activity, FKBP, substrate Succinyl-Ala-Phe-Pro-Phe-para-nitroanilide, TABLE I

Chain of FKBP (P62942 whole entry): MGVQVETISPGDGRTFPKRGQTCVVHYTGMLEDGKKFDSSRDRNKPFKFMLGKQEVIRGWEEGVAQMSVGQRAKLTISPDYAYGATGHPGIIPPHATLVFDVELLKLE

| IC50 [2, 4] [µM] | SMILES | IC50 [1, 3] [µM] | IC50 [1] [µM] | IC50 [2] [µM] |
| --- | --- | --- | --- | --- |
| < 50 | CC[C@H](C)[C@H](NC(=O)[C@@H]1CCCCN1CC(=O)c1ccccc1)C(=O)NCc1ccccc1 [Example 17, L-Isoleucine, N-[1-(2-Phenyl-2-Oxoethyl)-L-Homoproline] Benzylamide] | > 50 |  |  |
| < 50 | O=C(CN1CCC[C@H]1C(=O)N[C@H](C(=O)NCc1ccccc1)c1ccccc1)c1ccccc1 [Example 18] | 6 |  |  |
| < 50 | CC[C@H](C)[C@H](NC(=O)[C@@H]1CCCN1C(C)C(=O)c1ccccc1)C(=O)NCc1ccccc1 (stereo partly drawn) [Example 19, L-Isoleucine, N-[1-(1-Methyl-2-Phenyl-2-Oxoethyl)-L-Prolyl] Benzylamide] | 18 |  |  |
| < 50 | CC[C@H](C)[C@H](NC(=O)[C@@H]1CCCN1CC(=O)c1cccc(OC)c1)C(=O)NCc1ccccc1 [Example 20, L-Isoleucine, N-[1-(2-(3-Methoxyphenyl)-2-Oxoethyl)-L-Prolyl] Benzylamide] | < 11 |  |  |
| < 50 | CC[C@H](C)[C@H](NC(=O)[C@@H]1CCCN1CC(=O)c1ccc(O)c(O)c1)C(=O)NCc1ccccc1 [Example 21, L-Isoleucine, N-[1-(2-(3,4-Dihydroxyphenyl)-2-Oxoethyl)-L-Prolyl] Benzylamide] | 34 |  |  |
| > 50 | CC[C@H](C)[C@@H](C(=O)NCc1ccccc1)N(C)C(=O)[C@@H]1CCCN1CC(=O)OCc1ccccc1 [Example 22, L-Isoleucine, N-Methyl-N-[1-(2-Benzyloxy-2-Oxoethyl)-L-Prolyl] Benzylamide] | 42 |  |  |
| < 50 | CC[C@H](C)[C@H](NC(=O)[C@@H]1CCCCN1CC(=O)OCc1ccccc1)C(=O)NCc1ccccc1 [Example 23] | 62 |  |  |
| < 50 | CC[C@H](C)[C@H](NC(=O)[C@@H]1CCCN1CC(=O)C(C)(C)C)C(=O)NCc1ccccc1 [Example 26, L-Isoleucine, N-[1-(2-tert-Butyl-2-Oxoethyl)-L-Proline] Benzylamlde] | 58 |  |  |
| 12 | CC[C@H](C)[C@H](NC(=O)[C@@H]1CCCN1CC(=O)c1cc(OC)ccc1OC)C(=O)NCc1ccccc1 [Example 27, L-Isoleucine, N-[1-(2-(2,5-Dimethoxyphenyl)-2-Oxoethyl)-L-Prolyl] Benzylamide] | 20 |  |  |
| < 5 | CC[C@H](C)[C@H](NC(=O)[C@@H]1CCCN1CC(=O)c1cccc(OCc2ccccc2)c1)C(=O)NCc1ccccc1 [Example 31, L-Isoleucine, N-[1-(2-(3-Benzyloxyphenyl)-2-Oxoethyl)-L-Prolyl] Benzylamlde] | 32 |  |  |
| < 5 | CC[C@H](C)[C@H](NC(=O)[C@@H]1CCCN1CC(=O)c1ccc(C)cc1C)C(=O)NCc1ccccc1 [Example 32, L-Isoleucine, N-[1-(2-(2,4-Dimethylphenyl)-2-Oxoethyl)-L-Prolyl] Benzylamide] | 41 |  |  |
| 5 | CC[C@H](C)[C@H](NC(=O)[C@@H]1CCCN1CC(=O)c1ccc(F)cc1)C(=O)NCc1ccccc1 [Example 33, L-Isoleucine, N-[1-(2-(4-Fluorophenyl)-2-Oxoethyl)-L-Prolyl] Benzylamide] | 42 |  |  |
| < 5 | CC[C@H](C)[C@H](NC(=O)[C@@H]1CCCN1CC(=O)c1ccc(Br)cc1)C(=O)NCc1ccccc1 [Example 34, L-Isoleucine, N-[1-(2-(4-Bromophenyl)-2-Oxoethyl)-L-Prolyl] Benzylamide] | 40 |  |  |
| > 5 | CC[C@H](C)[C@H](NC(=O)[C@@H]1CCCN1CC(=O)Nc1ccc(Cl)cc1Cl)C(=O)NCc1ccccc1 [Example 35, L-Isoleucine, N-[1-(2,4-Dichlorophenylcarbamoylmethyl)-L-Proline] Benzylamide] | 43 |  |  |
|  | CC[C@H](C)[C@H](NC(=O)[C@@H]1CCCN1CC(=O)c1ccc(-c2ccccc2)cc1)C(=O)NC(C)(C)C [Example 52, L-Isoleucine, N-[1-(2-(Biphenyl-4-yl)-2-Oxoethyl)-L-Prolyl] tert-Butylamide] |  | > 50 | < 50 |
|  | O=C(CN1CCC[C@H]1C(=O)N[C@@H](Cc1ccccc1)C(=O)NCc1ccccc1)c1ccc(-c2ccccc2)cc1 [Example 53, L-Phenylalanine, N-[1-(2-(Biphenyl-4-yl)-2-Oxoethyl)-L-Prolyl] Benzylamide] |  | 16 | > 50 |
| > 5 | CC[C@H](C)[C@H](NC(=O)[C@@H]1CCCN1CC(=O)O)C(=O)NCc1ccccc1 [Example 71, L-Isoleucine, N-[1-(Carboxymethyl)-L-Prolyl] Benzylamide] | > 50 |  |  |
| < 5 | CC[C@H](C)[C@H](NC(=O)[C@@H]1CCCN1CC(=O)N1CCC(Cc2ccccc2)CC1)C(=O)NCc1ccccc1 [Example 74, L-Isoleucine, N-[1-[2-(N-(4-Benzylpiperidyl))-2-Oxoethyl]-L-Prolyl] Benzylamide] | < 50 |  |  |
| < 5 | CC[C@H](C)[C@H](NC(=O)[C@@H]1CCCN1CC(=O)N1CCCCC1C)C(=O)NCc1ccccc1 (stereo partly drawn) [Example 75, L-Isoleuclne, N-[1-[2-(2-Methylpiperidine)-2-Oxoethyl]-L-Prolyl] Benzylamide] | 37 |  |  |
| > 5 | CC[C@H](C)[C@H](NC(=O)[C@@H]1CCCN1CC(=O)NCCO)C(=O)NCc1ccccc1 [Example 76, L-Isoleucine, N-[1-(2-(2-Hydroxyethylamine)-2-Oxoethyl)-L-Prolyl] Benzylamide] | > 50 |  |  |

| SMILES | IC50 [2, 4] [µM] | IC50 [1, 3] [µM] | IC50 [1] [µM] | IC50 [2] [µM] |
| --- | --- | --- | --- | --- |
| CC[C@H](C)[C@H](NC(=O)[C@@H]1CCCN1CC(=O)N1CCC2(CC1)OCCO2)C(=O)NCc1ccccc1 [Example 73, L-Isoleucine, N-[1-(2-(1,4-Dioxa-8-aza-spiro[4.5]dec-8-yl)-2-Oxoethyl)-L-Prolyl] Benzylamide] | < 5 | > 50 |  |  |
